Laboratory results taken from patent US20150197492A1, “NOVEL INDENO[1,2-c]QUINOLIN-11-ONE DERIVATIVES, PREPARATION METHOD AND APPLICATION THEREOF” (National Defense Medical Center, priority 2014, published 2015).

Tests used:
Type in all cases: cell-based
[1] = system: TK-10; test: cells; conditions: TK-10 (Renal Cancer), 10 μM, 48 hours
[2] = system: MDA-MB-468; test: cells; conditions: MDA-MB-468 (Breast Cancer), 10 μM, 48 hours
[3] = system: NCI-H23; test: cells; conditions: NCI-H23 (Non-Small Cell Lung Cancer), 10 μM, 48 hours
[4] = system: 55 to 60 cancer cell lines; conditions: 10 μM, 48 hours, all tested cell lines
[5] = system: PC-3; test: cells; conditions: PC-3 (Prostate Cancer), 10 μM, 48 hours
[6] = system: SNB-75; test: cells; conditions: SNB-75 (CNS Cancer), 10 μM, 48 hours
[7] = system: MOLT-4; test: cells; conditions: MOLT-4 (Leukemia), 10 μM, 48 hours
[8] = system: NCI-H460; test: cells; conditions: NCI-H460 (Non-Small Cell Lung Cancer), 10 μM, 48 hours
[9] = system: OVCAR-4; test: cells; conditions: OVCAR-4 (Ovarian Cancer), 10 μM, 48 hours
[10] = system: RPMI-8226; test: cells; conditions: RPMI-8226 (Leukemia), 10 μM, 48 hours
[11] = system: SN12C; test: cells; conditions: SN12C (Renal Cancer), 10 μM, 48 hours
[12] = system: OVCAR-5; test: cells; conditions: OVCAR-5 (Ovarian Cancer), 10 μM, 48 hours
[13] = system: COLO 205; test: cells; conditions: COLO 205 (Colon Cancer), 10 μM, 48 hours
[14] = system: 786-0; test: cells; conditions: 786-0 (Renal Cancer), 10 μM, 48 hours
[15] = system: NCI-H522; test: cells; conditions: NCI-H522 (Non-Small Cell Lung Cancer), 10 μM, 48 hours
[16] = system: OVCAR-3; test: cells; conditions: OVCAR-3 (Ovarian Cancer), 10 μM, 48 hours
[17] = system: RXF 393; test: cells; conditions: RXF 393 (Renal Cancer), 10 μM, 48 hours
[18] = system: SW-620; test: cells; conditions: SW-620 (Colon Cancer), 10 μM, 48 hours
[19] = system: T-47D; test: cells; conditions: T-47D (Breast Cancer), 10 μM, 48 hours
[20] = system: K-562; test: cells; conditions: K-562 (Leukemia), 10 μM, 48 hours
[21] = system: SK-OV-3; test: cells; conditions: SK-OV-3 (Ovarian Cancer), 10 μM, 48 hours
[22] = system: NCI-H322M; test: cells; conditions: NCI-H322M (Non-Small Cell Lung Cancer), 10 μM, 48 hours
[23] = system: M14; test: cells; conditions: M14 (Melanoma), 10 μM, 48 hours
[24] = system: SNB-19; test: cells; conditions: SNB-19 (CNS Cancer), 10 μM, 48 hours
[25] = system: ACHN; test: cells; conditions: ACHN (Renal Cancer), 10 μM, 48 hours
[26] = system: OVCAR-8; test: cells; conditions: OVCAR-8 (Ovarian Cancer), 10 μM, 48 hours
[27] = system: SK-MEL-5; test: cells; conditions: SK-MEL-5 (Melanoma), 10 μM, 48 hours
[28] = system: LOX IMVI; test: cells; conditions: LOX IMVI (Melanoma), 10 μM, 48 hours
[29] = system: UO-31; test: cells; conditions: UO-31 (Renal Cancer), 10 μM, 48 hours
[30] = system: SR; test: cells; conditions: SR (Leukemia), 10 μM, 48 hours

Structure (SMILES) | growth percentage [1] | growth percentage [2] | growth percentage [3] | Mean (mean growth percentage of the tested cancer cell lines) [4] | growth percentage [5] | growth percentage [6] | growth percentage [7] | growth percentage [8] | growth percentage [9] | growth percentage [10] | growth percentage [11] | growth percentage [12] | growth percentage [13] | growth percentage [14] | growth percentage [15] | growth percentage [16] | growth percentage [17] | growth percentage [18] | growth percentage [19] | growth percentage [20] | other results
O=C1c2cc(Cl)ccc2-c2c(N3CCSCC3)nc3ccccc3c21 [SJ-9, 9-Chloro-6-thiomorpholino-11H-indeno[1,2-c]quinolin-11-one] | 121.79% | 97.71% | 94.33% | 94.75% | 87.77% | 72.13% | 93.29% | 93.32% | 98.19% | 95.20% | 93.10% | 94.37% | 96.30% | 99.53% | 92.76% | 96.58% | 106.09% | 91.88% | 83.86% | 100.89% | growth percentage [21]: 84.60%; growth percentage [22]: 92.29%; growth percentage [23]: 101.69%; growth percentage [24]: 113.43%; growth percentage [25]: 86.42%; growth percentage [26]: 96.11%; growth percentage [27]: 89.52%; growth percentage [28]: 100.04%; growth percentage [29]: 65.33%; growth percentage [30]: 99.53%
O=C1c2cc(Cl)ccc2-c2c(N3CCN(C(=O)N4CCCCC4)CC3)nc3ccccc3c21 [SJ-23] | 131.97% | 106.42% | 95.41% | 100.53% | 93.07% | 80.84% | 104.77% | 98.85% | 98.31% | 104.31% | 101.12% | 102.33% | 98.52% | 105.05% | 99.28% | 103.33% | 107.22% | 92.51% | 95.99% | 95.70% | growth percentage [21]: 95.59%; growth percentage [22]: 94.59%; growth percentage [23]: 101.18%; growth percentage [24]: 108.66%; growth percentage [25]: 95.59%; growth percentage [26]: 104.73%; growth percentage [27]: 92.50%; growth percentage [28]: 103.19%; growth percentage [29]: 82.74%; growth percentage [30]: 105.15%
